We go through 13 compounds from EP3436024B1, “3-BETA-METHOXY-PREG FOR USE IN THE TREATMENT OF TREATMENT RESISTANT DEPRESSION” (Mapreg, priority 2016, dated 2017).

Assay [1] relates to microtubule-associated protein2 (MAP2). As to the kind of experiment: Binding (affinity) by displacement of PREG-3H. To be noted: index of binding.
Assay [2] addresses purified tubulin and MAP2 (Homo sapiens, UniProt P11137). Kind of assay: Microtubule polymerization activity (optical density at 345 nm). To be noted: increase in optical density at 345 nm, 37 °C, in the presence of GTP. The format is biochemical. As for the experimental part: Activity is measured by the increase in optical density at 345 nm of a mixture of purified tubulin and MAP2, incubated at 37 °C in the presence of GTP.

The next assay concerns PC12 cells. As to the kind of experiment: Stimulation of neuritic sprouting. To be noted: PC12 cells differentiated with NGF (10 ng/ml), steroid 30 µM, 3 days; relative to PREG. The format is cell-based. As for the experimental part:
Stimulation of neuritic sprouting is conducted on PC12 cells differentiated in the presence of NGF (10 ng/ml) and the steroid being tested (30 µM) for 3 days. For each condition, the average length of the longest 200 neurites […] is measured simultaneously for 3 cultures.

For assay [3], the system named is Wistar Kyoto (WKY) rats. As to the kind of experiment: Locomotor activity in the open-field arena, WKY rats. It is filed as in vivo, rat. To be noted: acute, fluoxetine 10 mg/kg i.p., ketamine 30 mg/kg i.p., 3 min, Fig. 5A. Here is the method:
(§1) After a 6-day period of acclimatization, all experimental groups received daily successive subcutaneous (250 µl per rat) and intraperitoneal (1 ml/kg) injections. WI rats received injection of vehicle (sesame oil + saline) while WKY rats were randomly assigned to […], as follow: KWY rats receiving only vehicle (sesame oil + saline) and WKY rats treated with MAP4343 (10 mg/kg, s.c.; rats received in parallel i.p. injections of saline), fluoxetine (10 mg/kg i.p., rats received in parallel s.c. injections of sesame oil) or ketamine (30 mg/kg, i.p.; rats received in parallel s.c. injections of sesame oil) (see Figure 3).
(§2) After, a 6-day period of acclimatization, the acute phase of treatment started for 4 days during behavioral tests were performed (Figure 3). All animals were injected 1h30 before the starting of behavioral test.
(§3) The animals were individually placed in the open field arena (OFA) (70 x 100 x 70 cm), with a central square (35 x 50 cm), located in a 50 lux illuminated room and videotaped during 3 min using a computerized system (VideoTrack V2.5, ViewPoint, Lyon, France).
(§4) OFA allows firstly the evaluation of total locomotor activity (LMA) thereby measuring the total distance travelled in the arena (in cm). Secondly, measurements of the activity in the center of the arena like (i) the number of entries in the center of arena and (ii) the total time spent in the center of arena (in sec) provide cues of anxiety-like behavior (Prut and Belzung, 2003). All these behavioral parameters were instantaneously measured automatically with the VideoTrack V2.5 software from the videos.

In assay [4] the test system is Wistar Kyoto (WKY) rats. As to the kind of experiment: Elevated-plus maze (EPM), WKY rats. It is filed as in vivo, rat. To be noted: acute, MAP4343 10 mg/kg s.c., fluoxetine 10 mg/kg, ketamine 30 mg/kg i.p., Fig. 5D. As for the experimental part:
as §1, §2
We used the elevated-plus maze (EPM) as an assay of anxiety-related behavior in rodents (Walf and Frye, 2007). Rats were initially placed in the center of the plus-maze, consisting of two open arms (50 x 10 cm) and two closed arms (50 x 10 cm enclosed by 40 cm walls), in a 50 lux illuminated room and videotaped during 5 min using a computerized system (VideoTrack V2.5, ViewPoint, Lyon, France). The time spent in the open versus closed arms was blindly measured by two independent experimenters from the recorded video, and the open arm-index was calculated as follow: time in the open arms (sec) / [time in open arms (sec) + time in closed arms (sec)].

The subject of assay [5] is Wistar Kyoto (WKY) rats. Kind of assay: Anxious-like behavior: activity in the central square of the open-field arena, WKY rats. To be noted: acute, MAP4343 10 mg/kg s.c., fluoxetine 10 mg/kg i.p., ketamine 30 mg/kg i.p. It is filed as in vivo, rat. Here is the method: as §1, §2, §3, §4
Assay [6] addresses T1, human progesterone receptor(PR) (Homo sapiens, UniProt P06401).
T1 construct: expressed in transfected cells; host or cells: HEK293T
T1 sequence (P06401 1-933): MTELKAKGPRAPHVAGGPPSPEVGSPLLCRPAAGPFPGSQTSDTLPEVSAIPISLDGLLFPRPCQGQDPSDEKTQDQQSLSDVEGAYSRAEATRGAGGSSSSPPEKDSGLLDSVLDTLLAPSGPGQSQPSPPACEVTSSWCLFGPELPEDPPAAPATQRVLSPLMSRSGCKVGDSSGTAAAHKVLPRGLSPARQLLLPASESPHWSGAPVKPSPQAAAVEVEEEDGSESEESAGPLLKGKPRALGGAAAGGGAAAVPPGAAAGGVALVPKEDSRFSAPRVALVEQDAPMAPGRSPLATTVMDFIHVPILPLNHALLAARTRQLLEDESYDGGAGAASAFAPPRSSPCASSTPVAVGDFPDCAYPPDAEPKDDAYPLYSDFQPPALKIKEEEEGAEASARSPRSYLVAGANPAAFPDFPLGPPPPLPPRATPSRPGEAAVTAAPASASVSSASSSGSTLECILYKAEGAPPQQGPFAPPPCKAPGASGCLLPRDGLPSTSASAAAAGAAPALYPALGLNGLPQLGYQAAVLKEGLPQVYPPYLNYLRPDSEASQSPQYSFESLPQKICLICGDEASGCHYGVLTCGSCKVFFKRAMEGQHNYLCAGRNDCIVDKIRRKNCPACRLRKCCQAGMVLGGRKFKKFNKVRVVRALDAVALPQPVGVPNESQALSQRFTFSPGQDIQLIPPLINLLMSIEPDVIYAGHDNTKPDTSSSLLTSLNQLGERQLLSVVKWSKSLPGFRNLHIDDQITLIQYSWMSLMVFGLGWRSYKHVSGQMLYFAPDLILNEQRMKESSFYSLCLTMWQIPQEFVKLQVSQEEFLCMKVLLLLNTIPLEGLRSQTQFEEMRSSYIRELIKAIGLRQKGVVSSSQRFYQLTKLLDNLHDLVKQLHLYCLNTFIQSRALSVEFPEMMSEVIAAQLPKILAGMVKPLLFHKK
As to the kind of experiment: Test of progesterone receptor agonist activity (MMTV-luciferase transactivation in transfected HEK293T cells). To be noted: 24 hours, increasing amounts, Figure 1. It is filed as cell-based. Here is the method:
The main experimental setting used is the following: HEK293T cells were transiently transfected, using calcium phosphate precipitation technology, with expression vectors pSG5hPR (which permits expression of human progesterone receptor(PR)), pFC31-luc (contains the luciferase gene under the control of the MMTV promoter, which is in turn activated by binding of a progestin to progesterone receptor) and pcbetagal (which permits expression of betagalactosidase), and cultured during 24 hours with increasing amounts of various compositions: • 1. […] Test of progesterone receptor […] activity: transfected cells were cultured with progesterone (1 nM) and increasing amounts of RU486 (a well-known progesterone receptor antagonist) or 3-methoxy-pregnenolone. With this setting, a compound with progesterone receptor antagonist activity competes with progesterone for the occupation of progesterone receptor and results in a progressive loss of transactivation activity when the amount of this compound is increased compared to progesterone.

Sequence of purified tubulin and MAP2 (P11137 whole entry): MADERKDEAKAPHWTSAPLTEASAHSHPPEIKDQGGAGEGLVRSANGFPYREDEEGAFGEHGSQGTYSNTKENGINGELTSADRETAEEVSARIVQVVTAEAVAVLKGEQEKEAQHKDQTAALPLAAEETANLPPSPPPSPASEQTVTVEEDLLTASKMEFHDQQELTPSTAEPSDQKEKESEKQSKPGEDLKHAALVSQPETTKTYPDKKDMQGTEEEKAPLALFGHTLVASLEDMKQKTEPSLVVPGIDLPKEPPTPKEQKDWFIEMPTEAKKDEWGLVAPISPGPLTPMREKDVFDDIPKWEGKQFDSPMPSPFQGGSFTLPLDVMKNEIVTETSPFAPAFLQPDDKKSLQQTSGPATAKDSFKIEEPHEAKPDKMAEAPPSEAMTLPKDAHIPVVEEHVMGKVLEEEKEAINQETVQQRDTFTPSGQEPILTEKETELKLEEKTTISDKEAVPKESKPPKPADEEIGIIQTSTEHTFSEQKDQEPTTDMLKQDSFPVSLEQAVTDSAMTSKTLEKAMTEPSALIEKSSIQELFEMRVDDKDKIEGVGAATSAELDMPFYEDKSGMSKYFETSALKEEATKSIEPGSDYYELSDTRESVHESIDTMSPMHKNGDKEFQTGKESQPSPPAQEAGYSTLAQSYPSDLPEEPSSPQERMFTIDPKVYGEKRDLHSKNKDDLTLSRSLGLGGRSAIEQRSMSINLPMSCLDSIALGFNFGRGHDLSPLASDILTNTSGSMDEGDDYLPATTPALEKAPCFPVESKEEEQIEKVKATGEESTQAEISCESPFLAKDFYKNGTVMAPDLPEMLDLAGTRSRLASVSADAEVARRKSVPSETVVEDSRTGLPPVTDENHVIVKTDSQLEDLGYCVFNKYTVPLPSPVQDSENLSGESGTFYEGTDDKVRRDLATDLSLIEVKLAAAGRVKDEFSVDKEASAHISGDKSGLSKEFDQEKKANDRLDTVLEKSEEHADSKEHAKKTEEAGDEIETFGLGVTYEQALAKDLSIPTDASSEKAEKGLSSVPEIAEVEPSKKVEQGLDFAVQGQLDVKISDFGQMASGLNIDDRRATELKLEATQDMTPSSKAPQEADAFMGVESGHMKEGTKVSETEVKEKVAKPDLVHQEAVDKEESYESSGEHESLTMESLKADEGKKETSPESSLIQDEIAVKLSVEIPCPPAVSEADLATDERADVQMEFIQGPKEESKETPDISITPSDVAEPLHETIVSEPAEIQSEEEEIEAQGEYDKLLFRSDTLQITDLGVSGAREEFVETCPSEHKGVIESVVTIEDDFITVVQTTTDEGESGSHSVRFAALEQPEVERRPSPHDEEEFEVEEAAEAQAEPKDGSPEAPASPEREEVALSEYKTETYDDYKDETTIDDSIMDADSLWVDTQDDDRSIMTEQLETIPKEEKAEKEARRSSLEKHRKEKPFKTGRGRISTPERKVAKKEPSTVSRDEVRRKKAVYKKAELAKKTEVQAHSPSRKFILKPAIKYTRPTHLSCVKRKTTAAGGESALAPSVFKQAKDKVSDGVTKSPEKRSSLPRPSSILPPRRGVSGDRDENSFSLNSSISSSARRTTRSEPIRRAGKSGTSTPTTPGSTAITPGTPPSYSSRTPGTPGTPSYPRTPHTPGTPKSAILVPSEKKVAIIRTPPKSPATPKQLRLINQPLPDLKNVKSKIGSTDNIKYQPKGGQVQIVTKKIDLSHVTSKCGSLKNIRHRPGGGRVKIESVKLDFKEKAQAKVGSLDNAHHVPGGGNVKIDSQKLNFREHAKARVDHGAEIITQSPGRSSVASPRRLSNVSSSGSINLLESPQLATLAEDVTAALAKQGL

With `CO[C@H]1CC[C@@]2(C)[C@@H](CC[C@@H]3[C@@H]2CC[C@]2(C)[C@@H](C(C)=O)CC[C@@H]32)C1` (stereo in doubt) [3β-methoxy-5a-pregnane-20-one], in assay [1], the Affinity was 87% of PREG. For the same compound, the Activity in assay [2] was 10% of PREG. In addition, the Neuritic sprouting entry in the assay with PC12 cells is given as “+++”.

`CC(=O)[C@H]1[C@H](C)C[C@H]2[C@@H]3CC[C@H]4C[C@@H](O)CC[C@]4(C)[C@H]3CC[C@@]21C` [3β-hydroxy-5a-pregnane-20-one-16a-methyl]: the Affinity in assay [1] is 57% of PREG. Further, the Activity in assay [2] was 53% of PREG.

Consider `CO[C@H]1CC[C@@]2(C)[C@@H](CC[C@@H]3[C@@H]2CC[C@]2(C)[C@@H]([C@@H](C)O)CC[C@@H]32)C1` [3β-methoxy-5a-pregnane-20β-ol], for which the Affinity in assay [1] is listed as 65% of PREG. In addition, the Activity in assay [2] is given as 65% of PREG. Also, in the assay on PC12 cells, the Neuritic sprouting result is reported as “++ (equal to)”.

With `CO[C@H]1CC[C@@]2(C)C(=CC[C@H]3C4=CC[C@H](C(C)=O)[C@@]4(C)CC[C@@H]32)C1` [3β-methoxy-pregna-5,14-diene-20-one], the Affinity in assay [1] is recorded as 102% of PREG. In assay [2], the Activity is recorded as 50% of PREG. Further, the Neuritic sprouting entry in the assay with PC12 cells is given as “+ (stimulation is lower than)”.

Take `CO[C@H]1CC[C@@]2(C)C(=CCC3C2CC[C@@]2(C)C3CC[C@@]2(C(C)=O)C(Cl)Cl)C1` (stereo partly drawn) [3β-methoxy-pregna-5-ene-20-one-17a-dichloromethyl]: the Affinity in assay [1] is listed as 53% of PREG. In addition, in assay [2], the Activity is reported as 113% of PREG. The Neuritic sprouting result in the assay with PC12 cells is given as “+++”.

`CC(=O)[C@@]12O[C@@H]1C[C@H]1[C@@H]3CC=C4C[C@@H](O)CC[C@]4(C)[C@H]3CC[C@@]12C` [PREG-16a,17a-epoxy]: the Affinity in assay [1] was 41% of PREG. In assay [2], the Activity is 54% of PREG. Besides, in the assay on PC12 cells, the Neuritic sprouting entry is reported as “+ (stimulation is lower than)”.

As to `CC(=O)[C@@]12C[C@@H]1C[C@H]1[C@@H]3CC=C4C[C@@H](O)CC[C@]4(C)[C@H]3CC[C@@]12C` [PREG-16a,17a-methylene], the Affinity in assay [1] was 62% of PREG. The Activity in assay [2] is 49% of PREG. Moreover, in the assay with PC12 cells, the Neuritic sprouting entry is “+ (stimulation is lower than)”.

For `CC(=O)[C@H]1[C@H](C)C[C@H]2[C@@H]3CC=C4C[C@@H](O)CC[C@]4(C)[C@H]3CC[C@@]21C` [PREG-16a-methyl], the Affinity in assay [1] was 80% of PREG. In assay [2], the Activity was 70% of PREG. In addition, in the assay on PC12 cells, the Neuritic sprouting entry is recorded as “++ (equal to)”.

Take `CC(=O)[C@H]1[C@@H](C)C[C@H]2[C@@H]3CC=C4C[C@@H](O)CC[C@]4(C)[C@H]3CC[C@@]21C` [PREG-168-methyl]: the Affinity in assay [1] is given as 63% of PREG. The Activity in assay [2] is 67% of PREG.

Regarding `CC(=O)O[C@H](C)[C@H]1CC[C@H]2[C@@H]3CC=C4C[C@@H](O)CC[C@]4(C)[C@H]3CC[C@]12C` [Pregna-5-ene-3β,20β-diol-20-acetate], in assay [1], the Affinity is on record as 60% of PREG. For the same compound, the Activity in assay [2] is on record as 108% of PREG. In addition, the Neuritic sprouting entry with PC12 cells is on record as “++ (equal to)”.

For `CC(=O)[C@H]1CC[C@H]2[C@@H]3CC=C4C[C@@H](O)CC[C@]4(C)[C@H]3CC[C@]12C` [Pregnenolone (PREG), 3β-hydroxypregn-5α-en-20α-one, reference compound], in assay [1], the Affinity was 100% of PREG. In assay [2], the Activity is listed as 100% of PREG. Besides, the Neuritic sprouting entry in the assay with PC12 cells is “++ (equal to)”.

Consider `CNC1(c2ccccc2Cl)CCCCC1=O` (stereo not shown) [ketamine], for which, in the assay on Wistar Kyoto (WKY) rats [3] (MAP4343 10 mg/kg s.c.), the “locomotor activity (total distance travelled in the open-field arena), change as compared to WKY receiving vehicle” value is listed as “no significant change”. For the same compound, the “locomotor activity (total distance travelled in the open-field arena), change as compared to MAP4343-treated WKY” value in the assay with Wistar Kyoto (WKY) rats [3] is reported as “no significant change”. The “open-arm (OA) index, change when compared to WKY receiving vehicle alone” value with Wistar Kyoto (WKY) rats [4] was -29%. In addition, the “number of entries in the central square of OFA, change as compared to WKY receiving only vehicle” value in the assay with Wistar Kyoto (WKY) rats [5] (Fig. 5B) was “failed to significantly modify”. In addition, the “time spent in the center of open-field, change as compared to WKY receiving vehicle” value in the assay on Wistar Kyoto (WKY) rats [5] (Fig. 5C) was “did not induce any significant change”.

Take `CC(=O)[C@H]1CC[C@H]2[C@@H]3CCC4=CC(=O)CC[C@]4(C)[C@H]3CC[C@]12C` [progesterone, reference compound]: in assay [6], the “progesterone receptor agonist activity (transactivation activity leading to the expression of luciferase)” value is reported as “permits a transactivation activity”.
